Experimental data taken from ChEMBL document CHEMBL5150053, “Carboxymethyl tethered poly(disubstituted)triazoles built on nucleoside skeletons: A unique class of ribonuclease A inhibitors designed using chemical logic” (Bioorg Med Chem, 2022).
pKi: −log10 of the molar value. Calls of active or inactive are those of the source. The calls are words filed in the database; no cut-off is given here.

Assays:
[1] = Linear mixed type inhibition of bovine pancreatic RNase A using 2',3'-cCMP as substrate assessed as inhibition constant by spectrophotometric analysis; design: species or system Bos taurus
Bos taurus [2] = organism: Bos taurus; experiment: Inhibition of bovine pancreatic RNase A using tRNA as substrate assessed as substrate degradation preincubated with compound for 3 hrs followed by substrate addition and measured after 30 mins by ethidium bromide staining based agarose gel electrophoresis analysis; settings: time 3.5 hrs
[3] = Competitive reversible inhibition of bovine pancreatic RNase A using 2',3'-cCMP as substrate assessed as inhibition constant by spectrophotometric analysis; design: species or system Bos taurus
[4] = Uncompetitive inhibition of bovine pancreatic RNase A using 2',3'-cCMP as substrate assessed as inhibition constant by spectrophotometric analysis; design: species or system Bos taurus
Bos taurus [5] = organism: Bos taurus; experiment: Uncompetitive inhibition of bovine pancreatic RNase A using 2',3'-cCMP as substrate assessed as Michaelis-Menten constant (Km) by Lineweaver-burk plot analysis (reference value: 9.35 x 10^-4 M)
[6] = Competitive inhibition of bovine pancreatic RNase A using 2',3'-cCMP as substrate assessed as inhibition constant by spectrophotometric analysis; design: species or system Bos taurus
[7] = Hyperbolic partial competitive inhibition of bovine pancreatic RNase A using 2',3'-cCMP as substrate assessed as inhibition constant by spectrophotometric analysis; design: species or system Bos taurus

Row | inhibition (Bos taurus [2]) | pKi [3] | pKi [6] | Compound | other results
1 | Active | – | – | Cc1cn([C@H]2C[C@H](OCc3cn(CC(=O)O)nn3)[C@@H](COCc3cn(CC(=O)O)nn3)O2)c(=O)[nH]c1=O | pKi [1]: 3.68
2 | – | 5.76 | – | Nc1ccn([C@@H]2O[C@H](CO)[C@@H](S(=O)(=O)CC(=O)O)[C@H]2O)c(=O)n1 | –
3 | – | 5.68 | – | Cc1cn([C@H]2C[C@H](S(=O)(=O)O)[C@@H](CO)O2)c(=O)[nH]c1=O | –
4 | – | 4.54 | – | O=S(=O)(O)CCn1cc(CO[C@@H]2O[C@H](Cn3cc(CS(=O)(=O)O)nn3)[C@@H](O)[C@H]2O)nn1 | –
5 | – | 6.02 | – | O=c1ccn([C@@H]2O[C@H](CO)[C@@H](S(=O)(=O)O)[C@@H]2O)c(=O)[nH]1 | –
6 | Active | – | – | Cc1cn([C@H]2C[C@H](O)[C@@H](CO)O2)c(=O)n(Cc2cn(CC(=O)O)nn2)c1=O | pKi [4]: 3.63; Km (Bos taurus [5]): 585 µM
7 | Active | – | 3.45 | Cc1cn([C@H]2C[C@H](OCc3cn(CC(=O)O)nn3)[C@@H](CO)O2)c(=O)n(Cc2cn(CC(=O)O)nn2)c1=O | –
8 | Active | – | 4.13 | O=C(O)Cn1cc(COC[C@H]2O[C@@H](n3ccc(=O)n(Cc4cn(CC(=O)O)nn4)c3=O)[C@H](OCc3cn(CC(=O)O)nn3)[C@@H]2OCc2cn(CC(=O)O)nn2)nn1 | –
9 | – | 4.34 | – | O=C(O)c1nnn(C[C@H]2O[C@@H](OCc3cn(CCS(=O)(=O)O)nn3)[C@H](O)[C@@H]2O)c1C(=O)O | –
10 | Active | – | 3.70 | O=C(O)Cn1cc(COC[C@H]2O[C@@H](n3ccc(=O)n(Cc4cn(CC(=O)O)nn4)c3=O)[C@H](O)[C@@H]2O)nn1 | –
11 | Active | – | – | Cc1cn([C@H]2C[C@H](OCc3cn(CC(=O)O)nn3)[C@@H](COCc3cn(CC(=O)O)nn3)O2)c(=O)n(Cc2cn(CC(=O)O)nn2)c1=O | pKi [7]: 5.64
12 | Active | – | 4.26 | O=C(O)Cn1cc(Cn2c(=O)ccn([C@@H]3O[C@H](CO)[C@@H](O)[C@H]3O)c2=O)nn1 | –
13 | – | 5.70 | – | O=C(O)CS(=O)(=O)[C@H]1[C@@H](O)[C@H](n2ccc(=O)[nH]c2=O)O[C@@H]1CO | –
